Test results as given in patent publication US9181265B2, “Substituted 2,3-dihydro-1H-benzo[a]pyrano[2,3-c]phenazines as anti-angiogenic and anti-cancer agents” (UNIVERSITE CATHOLIQUE DE LOUVAIN, priority 2010, dated 2015).
Read-outs that look alike come from different tables or passages of the source. Marks after values point to notes of the source that are not given here.

Experiments:
[1] = test system: U373; assay: MTT test of overall cell growth, U373 glioma cells, normoxia or hypoxia; format: cell-based, human; details: for Selectivity: U373, IC50 (normoxia)/IC50 (hypoxia 1% O2), if u.t.d., ratio of activity at 100 μM
Protocol: (§1) MTT tests were performed in order to rapidly, i.e. within 3 days, measure the effect of compounds of this invention on the overall cell growth. The test measured the number of metabolically active living cells that were able to transform the yellow product 3-(4,5-dimethylthiazol-2-yl)-2,5-diphenyl tetrazolium bromide (herein referred as MTT) into the blue product formazan dye by mitochondrial reduction. The amount of formazan obtained at the end of the experiment, measured by means of a spectrophotometer (Plate Reader Victor X4 Microplate reader (Perkin Elmer), is directly proportional to the number of living cells. Optical density determination thus enabled a quantitative measurement of the effect of the investigated compounds under control conditions (normoxia) as compared to the hypoxic conditions (0.1 or 1% O2) and/or untreated conditions.
(§2) Human umbilical vein endothelial cells (HUVEC) and six human cancer cell lines were used in the MTT tests. These cancer cell lines cover five histological cancer types including cervix (SiHa), breast (MCF-7 and MDA-MB231), prostate (PC3), glioma (U373), and colorectal (LoVo) cancers.
(§3) To perform the assay, cells were allowed to grow in 96-well microplates with a flat bottom following addition of an amount of 100 μl of cell suspension per well with 4,500 cells/well. Each cell line was seeded in its appropriate culture medium. HUVEC were cultured in a specific endothelial cell growth medium (ECACC, Sigma); SiHa cells in Glutamax-containing DMEM with 4.5 g/1 glucose (Invitrogen) supplemented with 10% Foetal Bovine Serum (PAA) and 1% penicillin+streptomycin mix (Invitrogen); MCF-7, MDA-MB-231, PC3, and LoVo cells in Glutamax-containing RPMI supplemented with 10% Foetal Bovine Serum (PAA) and 1% penicillin+streptomycin mix (Invitrogen) and U373 cells in Glutamax-containing DMEM (Invitrogen) with 5% Foetal Bovine Serum (PAA) and 1% penicillin+streptomycin mix (Invitrogen).
(§4) The detailed experimental procedure was the following: after a 24-hour period of incubation at 37° C., the culture medium was replaced by 100 μl of fresh medium in which the tested compound was previously dissolved, at the following concentrations: 10^−8 M, 5.10^−8, 10^−7, 5.10^−7, 10^−6, 5.10^−6, 10^−5, 5.10^−5 and 10^−[…]. Each experiment was performed in sestuplicates (6 times).
(§5) Cells were then incubated under normoxia in a Binder incubator (the O2 level corresponding to the concentration in the ambient air), or in a Ruskin hypoxia workstation under either 0.1% O2 (v/v) or 1% O2 (v/v). Under both conditions, the atmosphere was humidified and the CO2 concentration was fixed at 5 vol. %.
(§6) After 72 hours of incubation at 37° C. under normoxic or hypoxic conditions, with or without the compound to be tested, the medium was replaced by 100 μl of HBSS (without phenol red) containing MTT at a concentration of 0.5 or 1 mg/ml. The micro-wells were subsequently incubated during 3 hours and a half at 37° C. and centrifuged at 1300 rpm during 10 minutes. Medium was removed and formazan crystals formed were dissolved in 100 μl DMSO. The micro-wells were shaken for 5 minutes and read on a spectrophotometer at wavelengths of 570 nm (maximal formazan absorbance).
(§7) For each experimental condition, the mean optical density was calculated, allowing the determination of the percentage of living cells in comparison to the control.

[2] = test system: MDA-MB-231; assay: MTT test of overall cell growth, MDA-MB-231 breast cancer cells, normoxia or hypoxia; format: cell-based, human; details: for Selectivity: MDA-MB-231, IC50 (normoxia)/IC50 (hypoxia 1% O2), if u.t.d., ratio of activity at 100 μM
Protocol: as §1, §2, §3, §4, §5, §6, §7

[3] = test system: MCF-7; assay: MTT test of overall cell growth, MCF-7 breast cancer cells, normoxia or hypoxia; format: cell-based, human; details: for Selectivity: MCF-7, IC50 (normoxia)/IC50 (hypoxia 1% O2), if u.t.d., ratio of activity at 100 μM
Protocol: as §1, §2, §3, §4, §5, §6, §7

[4] = test system: PC3; assay: MTT test of overall cell growth, PC3 prostate cancer cells, normoxia or hypoxia; format: cell-based, human; details: for Selectivity: PC3, IC50 (normoxia)/IC50 (hypoxia 1% O2), if u.t.d., ratio of activity at 100 μM
Protocol: as §1, §2, §3, §4, §5, §6, §7

[5] = test system: siHa; assay: MTT test of overall cell growth, SiHa cervix cancer cells, normoxia or hypoxia; format: cell-based, human; details: for Selectivity: IC50 (normoxia)/IC50 (hypoxia 1% O2), if u.t.d., ratio of activity at 100 μM
Protocol: as §1, §2, §3, §4, §5, §6, §7

[6] = test system: Human umbilical vein endothelial cells (HUVEC); assay: MTT test of overall cell growth, endothelial cells, normoxic or hypoxic conditions; format: cell-based; details: for Selectivity: if u.t.d., ratio of activity at 100 μM
Protocol: as §1, §2, §3, §4, §5, §6, §7

[7] = test system: LoVo; assay: MTT test of overall cell growth, LoVo colorectal cancer cells, normoxia or hypoxia; format: cell-based, human; details: for Selectivity: IC50 (normoxia)/IC50 (hypoxia 1% O2), if u.t.d., ratio of activity at 100 μM
Protocol: as §1, §2, §3, §4, §5, §6, §7

[8] = Homo sapiens, U373 MG, U373, hypoxia 1% O2, 72 h, read-out: IC50 (μM) Hypoxia 1% O2
[9] = Homo sapiens, MDA-MB-231, hypoxia 1% O2, 72 h, read-out: IC50 (μM) Hypoxia 1% O2
[10] = Homo sapiens, MCF7, MCF-7, hypoxia 1% O2, 72 h, read-out: IC50 (μM) Hypoxia 1% O2
[11] = Homo sapiens, hypoxia 1% O2, 72 h, read-out: IC50 (μM) Hypoxia 1% O2
[12] = Homo sapiens, 72 h, hypoxia 0.1% O2, 72 h, read-out: IC50 (μM) Hypoxia 0.1%
[13] = Homo sapiens, 72 h, hypoxia 1% O2, 72 h, read-out: IC50 (μM) Hypoxia 1%
[14] = Homo sapiens, 72 h, normoxia, 72 h, series compared with hypoxia 0.1%, read-out: IC50 (μM) Normoxia
[15] = Homo sapiens, 72 h, normoxia, 72 h, series compared with hypoxia 1%, read-out: IC50 (μM) Normoxia
[16] = IC50 (normoxia)/IC50 (hypoxia 0.1%)
[17] = IC50 (normoxia)/IC50 (hypoxia 1%)
[18] = Homo sapiens, normoxia, 72 h, read-out: IC50 (μM) Normoxia
[19] = hypoxia 1% O2, 72 h, read-out: IC50 (μM) Hypoxia 1% O2
[20] = normoxia, 72 h, read-out: IC50 (μM) Normoxia

Row | SMILES | IC50 [1, 8] [µM] | IC50 (μM) Normoxia ([1]; U373, normoxia, 72 h) | Selectivity [1] | IC50 [2, 9] [µM] | IC50 (μM) Normoxia ([2]; MDA-MB-231, normoxia, 72 h) | Selectivity [2] | IC50 [3, 10] [µM] | IC50 (μM) Normoxia ([3]; MCF-7, normoxia, 72 h) | Selectivity [3] | IC50 (μM) Hypoxia 1% O2 ([4]; PC3, hypoxia 1% O2, 72 h) | IC50 [5, 11] [µM] | Selectivity [5] | IC50 [6, 12] [µM] | IC50 [6, 13] [µM] | IC50 [6, 15] [µM] | Selectivity [6, 16] | Selectivity [6, 17] | IC50 [7, 11] [µM] | IC50 [7, 18] [µM] | Selectivity [7] | also measured
1 | COc1ccc(CNC(=O)c2ccc3nc4c(nc3c2)c2c(c3ccccc34)OC(C)(C)[C@H]3CC[C@H](C)C[C@H]23)c(OC)c1 [Compound 16′] | 113 | u.t.d. | >1.54^b | 126 | u.t.d. | >1.38^b | 91.2 | u.t.d. | >1.91^b | u.t.d. | 92.1 | >1.89^b | 0.21 | 7.96 | 120 | 80 | 15 | 154 | 116 | 0.76 | IC50 (μM) Normoxia ([4]; PC3, normoxia, 72 h): u.t.d.; IC50 (μM) Normoxia ([5]; normoxia, 72 h): u.t.d.; IC50 [6, 14]: 16.7 µM
2 | COC(=O)c1ccc2nc3c4c(c5ccccc5c3nc2c1)OC(C)(C)[C@H]1CC[C@H](C)C[C@H]41 [Compound 11] | 141 | u.t.d. | >1.61^b | 158 | u.t.d. | >1.44^b | – | u.t.d. | – | u.t.d. | 134 | >1.69^b | 65.8 | 10.9 | 149 | >3.4^b | 14 | 152 | 216 | 1.42 | IC50 (μM) Hypoxia 1% O2 ([3]; MCF-7, hypoxia 1% O2, 72 h): u.t.d.; IC50 (μM) Normoxia ([4]; PC3, normoxia, 72 h): u.t.d.; IC50 (μM) Normoxia ([5]; normoxia, 72 h): u.t.d.; IC50 (μM) Normoxia ([6]; normoxia, 72 h, series compared with hypoxia 0.1%): u.t.d.
3 | C[C@H]1CC[C@H]2[C@H](C1)c1c(c3ccccc3c3nc4ccc(C(=O)N5CCOCC5)cc4nc13)OC2(C)C (racemic) [Compound 12′] | 0.61 | – | 15.00 | 1.31 | – | 33.85 | 1.45 | – | 7.78 | – | 1.17 | 62.07 | 0.04 | 0.14 | 4.14 | 105 | 29 | 1.21 | 10.6 | 8.75 | IC50 ([1]; Homo sapiens, U373 MG, U373, normoxia, 72 h, read-out: IC50 (μM) Normoxia): 9.08 µM; IC50 ([2]; Homo sapiens, MDA-MB-231, normoxia, 72 h, read-out: IC50 (μM) Normoxia): 44.4 µM; IC50 ([3]; Homo sapiens, MCF7, MCF-7, normoxia, 72 h, read-out: IC50 (μM) Normoxia): 11.3 µM; IC50 ([4]; Homo sapiens, PC-3, PC3, hypoxia 1% O2, 72 h, read-out: IC50 (μM) Hypoxia 1% O2): 1.41 µM; IC50 ([4]; Homo sapiens, PC-3, PC3, normoxia, 72 h, read-out: IC50 (μM) Normoxia): 15.3 µM; Selectivity [4]: 10.86; IC50 [5, 18]: 72.6 µM; IC50 [6, 14]: 4.24 µM
4 | CC1CCC2C(C1)c1c(c3ccccc3c3nc4ccc(C(=O)NC(CO)Cc5ccccc5)cc4nc13)OC2(C)C (mixture of isomers) [Compound 17′] | – | – | 8.67 | – | – | 5.40 | – | – | 1.37 | – | – | 9.50 | – | – | – | 230 | 16 | – | – | 1.64 | IC50 ([1]; U373, hypoxia 1% O2, 72 h, read-out: IC50 (μM) Hypoxia 1% O2): 1.34 µM; IC50 ([1]; U373, normoxia, 72 h, read-out: IC50 (μM) Normoxia): 11.6 µM; IC50 ([2]; MDA-MB-231, hypoxia 1% O2, 72 h, read-out: IC50 (μM) Hypoxia 1% O2): 11.1 µM; IC50 ([2]; MDA-MB-231, normoxia, 72 h, read-out: IC50 (μM) Normoxia): 59.9 µM; IC50 ([3]; MCF-7, hypoxia 1% O2, 72 h, read-out: IC50 (μM) Hypoxia 1% O2): 12.5 µM; IC50 ([3]; MCF-7, normoxia, 72 h, read-out: IC50 (μM) Normoxia): 17.2 µM; IC50 ([4]; PC3, hypoxia 1% O2, 72 h, read-out: IC50 (μM) Hypoxia 1% O2): 11.6 µM; IC50 ([4]; PC3, normoxia, 72 h, read-out: IC50 (μM) Normoxia): 15.2 µM; Selectivity [4]: 1.31; IC50 [5, 19]: 10.7 µM; IC50 [5, 20]: 102 µM; IC50 ([6]; hypoxia 0.1% O2, 72 h, read-out: IC50 (μM) Hypoxia 0.1%): 0.07 µM; IC50 ([6]; hypoxia 1% O2, 72 h, read-out: IC50 (μM) Hypoxia 1%): 0.36 µM; IC50 ([6]; normoxia, 72 h, series compared with hypoxia 0.1%, read-out: IC50 (μM) Normoxia): 17 µM; IC50 ([6]; normoxia, 72 h, series compared with hypoxia 1%, read-out: IC50 (μM) Normoxia): 5.72 µM; IC50 [7, 19]: 11.4 µM; IC50 [7, 20]: 18.8 µM
